The results in this text go back to patent US9493446B2, “Orexin receptor antagonists which are [ortho bi-(hetero-)aryl]-[2-(meta bi-(hetero-)aryl)-pyrrolidin-1-yl]-methanone derivatives” (Actelion Pharmaceuticals Ltd, priority 2012, dated 2016).

One experiment concerns the target orexin-1 (Homo sapiens (Human), UniProt O43613). Nature of the experiment: Intracellular calcium measurement (FLIPR), CHO cells expressing human orexin-1 receptor, 3 nM orexin-A. The format is cell-based. The following applies: read-out: IC50 OX1. An outline of the steps: (§1)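 CHO cells stably expressing each receptor were loaded with 3 μM fluo-4 AM plus 5 mM probenecid for 50 min at 37 °C, then equilibrated 30 min at rt.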
A general note: Calcium assays in cells follow changes in intracellular calcium, usually with a dye or a luminescent sensor.

For the next experiment, the target named is human orexin-2 receptor (Homo sapiens (Human), UniProt O43614). Description: Intracellular calcium measurement (FLIPR), CHO cells expressing human orexin-2 receptor, 3 nM orexin-A. It is filed as cell-based. The following applies: read-out: IC50 OX2. The method, boiled down: as §1
Setting [1] is: CHO cells expressing human orexin-1 receptor, FLIPR, 3 nM orexin-A, geometric mean if determined several times.
The mark [2] stands for this setting: CHO cells expressing human orexin-2 receptor, FLIPR, 3 nM orexin-A, geometric mean if determined several times.

Molecules are shown by their SMILES. Read-outs that look alike come from different tables or passages of the source.

Sequence of orexin-1 (O43613 whole entry): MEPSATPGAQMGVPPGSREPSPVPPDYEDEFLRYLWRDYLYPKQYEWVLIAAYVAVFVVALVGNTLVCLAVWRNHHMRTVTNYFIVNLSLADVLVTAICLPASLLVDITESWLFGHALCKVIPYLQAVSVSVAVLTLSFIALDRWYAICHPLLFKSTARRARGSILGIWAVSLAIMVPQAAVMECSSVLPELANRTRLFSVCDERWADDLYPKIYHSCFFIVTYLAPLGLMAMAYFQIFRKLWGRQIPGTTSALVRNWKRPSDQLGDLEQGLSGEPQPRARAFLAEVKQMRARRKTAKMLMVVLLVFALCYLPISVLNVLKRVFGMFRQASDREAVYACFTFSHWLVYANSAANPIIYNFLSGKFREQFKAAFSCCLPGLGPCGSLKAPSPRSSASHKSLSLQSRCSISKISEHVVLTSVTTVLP
Sequence of human orexin-2 receptor (O43614 whole entry): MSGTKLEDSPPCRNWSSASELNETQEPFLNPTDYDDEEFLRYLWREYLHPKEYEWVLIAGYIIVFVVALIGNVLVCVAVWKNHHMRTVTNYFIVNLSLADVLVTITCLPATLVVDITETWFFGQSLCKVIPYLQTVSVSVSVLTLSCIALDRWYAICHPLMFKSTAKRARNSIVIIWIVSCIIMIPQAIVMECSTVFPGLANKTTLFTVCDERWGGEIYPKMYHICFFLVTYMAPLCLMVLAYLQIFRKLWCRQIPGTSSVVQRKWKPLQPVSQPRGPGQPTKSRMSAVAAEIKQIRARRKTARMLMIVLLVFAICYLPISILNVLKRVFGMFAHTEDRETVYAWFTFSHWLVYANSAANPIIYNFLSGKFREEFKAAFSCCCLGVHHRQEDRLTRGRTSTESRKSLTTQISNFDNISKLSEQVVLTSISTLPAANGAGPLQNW

As a reminder, the IC50 is the point on the concentration scale where inhibition reaches its midpoint. In the case of `CCOc1c(F)cccc1-c1noc([C@@H]2CCCN2C(=O)c2cc(OC)c(C)cc2-n2nccn2)n1` [compound 291, {(S)-2-[3-(2-Ethoxy-3-fluoro-phenyl)-[1,2,4]oxadiazol-5-yl]-pyrrolidin-1-yl}-(5-methoxy-4-methyl-2-[1,2,3]triazol-2-yl-phenyl)-methanone], the IC50 was determined as 21 nM at orexin-1 (setting [1]) and 5 nM on human orexin-2 receptor (setting [2]).
For `CCOc1c(F)cccc1-c1noc([C@@H]2CCCN2C(=O)c2cc(OC)c(F)cc2-n2nccn2)n1` [compound 292, {(S)-2-[3-(2-Ethoxy-3-fluoro-phenyl)-[1,2,4]oxadiazol-5-yl]-pyrrolidin-1-yl}-(4-fluoro-5-methoxy-2-[1,2,3]triazol-2-yl-phenyl)-methanone] the same measures were 348 nM and 52 nM.
For the compound `Cc1cc(-n2nccn2)c(C(=O)N2CCC[C@H]2c2nc(-c3cccc(Cl)c3C)no2)cc1Cl` [compound 293], the values for the IC50 on orexin-1 (setting [1]) and at human orexin-2 receptor (setting [2]) were 32 nM and 10 nM, respectively.
As to `Cc1c(F)cccc1-c1noc([C@@H]2CCCN2C(=O)c2ccc(Cl)cc2-n2nccn2)n1` [compound 294], the values for the IC50 on orexin-1 (setting [1]) and on human orexin-2 receptor (setting [2]) were 155 nM and 17 nM, respectively.
For `COc1cc(C(=O)N2CCC[C@H]2c2nc(-c3cccc(F)c3C)no2)c(-n2nccn2)cc1Cl` [compound 295], the figures for the IC50 on orexin-1 (setting [1]) and on human orexin-2 receptor (setting [2]) were 78 nM and 3 nM, respectively.
In the case of `Cc1c(Cl)cccc1-c1noc([C@@H]2CCCN2C(=O)c2cccc(Cl)c2-n2nccn2)n1` [compound 296], the concentration for half-maximal inhibition (IC50) came to 582 nM at orexin-1 (setting [1]) and 272 nM on human orexin-2 receptor.
As for `COc1c(F)cccc1-c1noc([C@@H]2CCCN2C(=O)c2cccc(Cl)c2-n2nccn2)n1` [compound 297], the IC50 on orexin-1 is 690 nM; at human orexin-2 receptor (setting [2]) it was 478 nM.
Take `O=C(c1cccc(Cl)c1-n1nccn1)N1CCC[C@H]1c1nc(-c2ccccc2OC(F)(F)F)no1` [compound 298]: the IC50 was determined as 531 nM at orexin-1 (setting [1]) and 517 nM on human orexin-2 receptor (setting [2]).
For `Cc1cc(-n2nccn2)c(C(=O)N2CCC[C@H]2c2nc(-c3ccccc3OC(F)(F)F)no2)cc1Cl` [compound 299] the same measures were 25 nM and 19 nM.
Turning to `CCOc1c(F)cccc1-c1noc([C@@H]2CCCN2C(=O)c2cc(Cl)c(C)cc2-n2nccn2)n1` [compound 300], the IC50 on orexin-1 (setting [1]) is 14 nM; on human orexin-2 receptor (setting [2]) it was 10 nM.
For the compound `CCOc1ncccc1-c1noc([C@@H]2CCCN2C(=O)c2cc(Cl)c(C)cc2-n2nccn2)n1` [compound 301], the figures for the IC50 on orexin-1 (setting [1]) and at human orexin-2 receptor (setting [2]) were 19 nM and 6 nM, respectively.
As for `Cc1cccc(-c2nc([C@@H]3CCCN3C(=O)c3cc(C)ccc3-n3nccn3)no2)c1` [compound 305, (5-Methyl-2-[1,2,3]triazol-2-yl-phenyl)-[(S)-2-(5-m-tolyl-[1,2,4]oxadiazol-3-yl)-pyrrolidin-1-yl]-methanone], the IC50 on orexin-1 (setting [1]) came to 164 nM; at human orexin-2 receptor (setting [2]) it was 74 nM.
For `CCOc1ccccc1-c1nc([C@@H]2CCCN2C(=O)c2cc(C)ccc2-n2nccn2)no1` [compound 306, {(S)-2-[5-(2-Ethoxy-phenyl)-[1,2,4]oxadiazol-3-yl]-pyrrolidin-1-yl}-(5-methyl-2-[1,2,3]triazol-2-yl-phenyl)-methanone] the same measures were 36 nM and 2 nM.
In the same order, the values of `Cc1ccc(-n2nccn2)c(C(=O)N2CCC[C@H]2c2noc(-c3cccc4c3OCC4)n2)c1` [compound 307, {(S)-2-[5-(2,3-Dihydro-benzofuran-7-yl)-[1,2,4]oxadiazol-3-yl]-pyrrolidin-1-yl}-(5-methyl-2-[1,2,3]triazol-2-yl-phenyl)-methanone] are 130 nM and 3 nM.
Regarding `CCOc1ccccc1-c1nc([C@@H]2CCCN2C(=O)c2cc(OC)c(C)cc2-n2nccn2)no1` [compound 309, {(S)-2-[5-(2-Ethoxy-phenyl)-[1,2,4]oxadiazol-3-yl]-pyrrolidin-1-yl}-(5-methoxy-4-methyl-2-[1,2,3]triazol-2-yl-phenyl)-methanone], the IC50 at orexin-1 (setting [1]) worked out at 13 nM; at human orexin-2 receptor (setting [2]) it was 1 nM.
In the same order, the values of `COc1cc(C(=O)N2CCC[C@H]2c2noc(-c3cccc(F)c3C)n2)c(-n2nccn2)cc1C` [compound 310, {(S)-2-[5-(3-Fluoro-2-methyl-phenyl)-[1,2,4]oxadiazol-3-yl]-pyrrolidin-1-yl}-(5-methoxy-4-methyl-2-[1,2,3]triazol-2-yl-phenyl)-methanone] are 59 nM and 2 nM.
On to `CCOc1ncccc1-c1nc([C@@H]2CCCN2C(=O)c2cc(OC)c(C)cc2-n2nccn2)no1` [compound 311, {(S)-2-[5-(2-Ethoxy-pyridin-3-yl)-[1,2,4]oxadiazol-3-yl]-pyrrolidin-1-yl}-(5-methoxy-4-methyl-2-[1,2,3]triazol-2-yl-phenyl)-methanone], for which the values for the IC50 on orexin-1 (setting [1]) and at human orexin-2 receptor (setting [2]) were 16 nM and 4 nM, respectively.
Take `Cc1ccc(-n2nccn2)c(C(=O)N2CCC[C@H]2c2noc(-c3n[nH]c4ccccc34)n2)c1` [compound 312, {(S)-2-[5-(1H-Indazol-3-yl)-[1,2,4]oxadiazol-3-yl]-pyrrolidin-1-yl}-(5-methyl-2-[1,2,3]triazol-2-yl-phenyl)-methanone]: the values for the half-inhibitory concentration (IC50) at orexin-1 (setting [1]) and on human orexin-2 receptor (setting [2]) were 204 nM and 89 nM, respectively.
As for `Cc1ccc(-n2nccn2)c(C(=O)N2CCC[C@H]2c2noc(-c3cnc4sccn34)n2)c1` [compound 313, [(S)-2-(5-Imidazo[2,1-b]thiazol-5-yl-[1,2,4]oxadiazol-3-yl)-pyrrolidin-1-yl]-(5-methyl-2-[1,2,3]triazol-2-yl-phenyl)-methanone], the IC50 on orexin-1 (setting [1]) amounted to 661 nM; on human orexin-2 receptor (setting [2]), 76 nM.
In the case of `Cc1ccc(-n2nccn2)c(C(=O)N2CCC[C@H]2c2noc(-c3cccc(C(F)(F)F)n3)n2)c1` [compound 314, (5-Methyl-2-[1,2,3]triazol-2-yl-phenyl)-{(S)-2-[5-(6-trifluoromethyl-pyridin-2-yl)-[1,2,4]oxadiazol-3-yl]-pyrrolidin-1-yl}-methanone], the IC50 was 249 nM at orexin-1 (setting [1]) and 314 nM on human orexin-2 receptor (setting [2]).
For `Cc1ccc(-n2nccn2)c(C(=O)N2CCC[C@H]2c2noc(-c3cc(C(F)(F)F)ccn3)n2)c1` [compound 315, (5-Methyl-2-[1,2,3]triazol-2-yl-phenyl)-{(S)-2-[5-(4-trifluoromethyl-pyridin-2-yl)-[1,2,4]oxadiazol-3-yl]-pyrrolidin-1-yl}-methanone] the same measures were 1050 nM and 2130 nM.
For `COc1cc(Cl)cc(-c2nc([C@@H]3CCCN3C(=O)c3cc(C)ccc3-n3nccn3)no2)n1` [compound 316, {(S)-2-[5-(4-Chloro-6-methoxy-pyridin-2-yl)-[1,2,4]oxadiazol-3-yl]-pyrrolidin-1-yl}-(5-methyl-2-[1,2,3]triazol-2-yl-phenyl)-methanone] the same measures were 54 nM and 19 nM.
In the same order, the values of `CCOc1c(F)cccc1-c1nc([C@@H]2CCCN2C(=O)c2cc(C)ccc2-n2nccn2)no1` [compound 319, {(S)-2-[5-(2-Ethoxy-3-fluoro-phenyl)-[1,2,4]oxadiazol-3-yl]-pyrrolidin-1-yl}-(5-methyl-2-[1,2,3]triazol-2-yl-phenyl)-methanone] are 11 nM and 2 nM.
Turning to `COc1cc(C(=O)N2CCC[C@H]2c2noc(-c3cccc(Cl)c3C)n2)c(-n2nccn2)cc1C` [compound 320], the half-inhibitory concentration (IC50) was 25 nM at orexin-1 (setting [1]) and 1 nM at human orexin-2 receptor (setting [2]).
